In patent publication US20050250137A1, “Molecular targets of cancer and aging” (priority 2002, published 2005):

Assay: GoMiner gene ontology analysis of differentially regulated genes
Parameters: species or system human
[1] = Biological process: Bbiological—process unknown, GO 0000004, Total 232
[2] = Biological process: Cell adhesion, GO 0007155, Total 361
[3] = Biological process: Cell death, GO 0008219, Total 272
[4] = Biological process: Cell differentiation, GO 0030154, Total 106
[5] = Biological process: Cell motility, GO 0006928, Total 222
[6] = Biological process: Cell organization and biogenesis, GO 0016043, Total 282
[7] = Biological process: Cell proliferation, GO 0008283, Total 667
[8] = Biological process: Cell-cell signaling, GO 0007267, Total 365
[9] = Biological process: Metabolism, GO 0008152, Total 3192
[10] = Biological process: Response to endogenous stimulus, GO 0009719, Total 134
[11] = Biological process: Response to extracellular stimulus, GO 0009991, Total 10
[12] = Biological process: Response to stress, GO 0006950, Total 501
[13] = Biological process: Signal transduction, GO 0007165, Total 1321
[14] = Biological process: Transport, GO 0006810, Total 873
[15] = Biological process: alcohol metabolism, GO 0006066, Total 151
[16] = Biological process: amine metabolism, GO 0009308, Total 175
[17] = Biological process: amino acid and derivative metabolism, GO 0006519, Total 149
[18] = Biological process: anti-apoptosis, GO 0006916, Total 59
[19] = Biological process: apoptotic program, GO 0008632, Total 26
[20] = Biological process: biosynthesis, GO 0009058, Total 525
[21] = Biological process: carbohydrate metabolism, GO 0005975, Total 228
[22] = Biological process: catabolism, GO 0009056, Total 450
[23] = Biological process: cell cycle, GO 0007049, Total 442
[24] = Biological process: cell migration, GO 0016477, Total 39
[25] = Biological process: cell surface receptor linked signal transduction, GO 0007166, Total 588
[26] = Biological process: cell—cell adhesion, GO 0016337, Total 124
[27] = Biological process: cytokinesis, GO 0000910, Total 64
[28] = Biological process: cytoplasm organization and biogenesis, GO 0007028, Total 166
[29] = Biological process: electron transport, GO 0006118, Total 150
[30] = Biological process: energy pathways, GO 0006091, Total 158
[31] = Biological process: induction of apoptosis, GO 0006917, Total 83
[32] = Biological process: induction of programmed cell death, GO 0012502, Total 83
[33] = Biological process: intracellular signaling cascade, GO 0007242, Total 444
[34] = Biological process: intracellular transport, GO 0046907, Total 258
[35] = Biological process: ion transport, GO 0006811, Total 320
[36] = Biological process: lipid metabolism, GO 0006629, Total 299
[37] = Biological process: lymphocyte differentiation, GO 0030098, Total 22
[38] = Biological process: nuclear organization and biogenesis, GO 0006997, Total 109
[39] = Biological process: nucleobase, nucleoside, nucleotide and nucleic acid metabolism, GO 0006139, Total 1351
[40] = Biological process: organic acid metabolism, GO 0006082, Total 226
[41] = Biological process: phosphorus metabolism, GO 0006793, Total 423
[42] = Biological process: protein metabolism, GO 0019538, Total 1170
[43] = Biological process: protein transport, GO 0015031, Total 223
[44] = Biological process: regulation of cell proliferation, GO 0042127, Total 175
[45] = Biological process: regulation of metabolism, GO 0019222, Total 32
[46] = Biological process: response to DNA damage stimulus (under Response to endogenous stimulus), GO 0006974, Total 133
[47] = Biological process: response to DNA damage stimulus (under Response to stress), GO 0006974, Total 133
[48] = Biological process: response to abiotic stimulus, GO 0009628, Total 224
[49] = Biological process: response to biotic stimulus, GO 0009607, Total 552
[50] = Biological process: response to external stimulus, GO 0009605, Total 813
[51] = Biological process: response to pest/pathogen/parasite, GO 0009613, Total 287
[52] = Biological process: response to wounding, GO 0009611, Total 173
[53] = Biological process: taxis, GO 0042330, Total 77
[54] = Biological process: vesicle-mediated transport, GO 0016192, Total 167

In the case of `Nc1ncn([C@H]2C[C@H](O)[C@@H](CO)O2)c(=O)n1` [5-aza-dC, 5-aza-2′-deoxycytidine], the “5-aza-dC Down” value [1] is reported as 2, the “5-aza-dC Up” value [1] is reported as 6 and the “5-aza-dC Down” value [2] is reported as 0. For the same compound, the “5-aza-dC Up” value [2] was 7, the “5-aza-dC Down” value [3] was 2 and the “5-aza-dC Up” value [3] was 15. For the same compound, the “5-aza-dC Down” value [4] was 1, the “5-aza-dC Up” value [4] was 5 and the “5-aza-dC Down” value [5] was 1. For the same compound, the “5-aza-dC Up” value [5] was 1, the “5-aza-dC Down” value [6] was 0 and the “5-aza-dC Up” value [6] was 12. The “5-aza-dC Down” value [7] was 11, the “5-aza-dC Up” value [7] was 18 and the “5-aza-dC Down” value [8] was 0. For the same compound, the “5-aza-dC Up” value [8] was 11, the “5-aza-dC Down” value [9] was 18 and the “5-aza-dC Up” value [9] was 78. The “5-aza-dC Down” value [10] was 1, the “5-aza-dC Up” value [10] was 2 and the “5-aza-dC Down” value [11] was 0. For the same compound, the “5-aza-dC Up” value [11] was 1, the “5-aza-dC Down” value [12] was 3 and the “5-aza-dC Up” value [12] was 21. The “5-aza-dC Down” value [13] was 6, the “5-aza-dC Up” value [13] was 33 and the “5-aza-dC Down” value [14] was 1. The “5-aza-dC Up” value [14] was 12, the “5-aza-dC Down” value [15] was 2 and the “5-aza-dC Up” value [15] was 4. For the same compound, the “5-aza-dC Down” value [16] was 1, the “5-aza-dC Up” value [16] was 3 and the “5-aza-dC Down” value [17] was 1. The “5-aza-dC Up” value [17] was 3, the “5-aza-dC Down” value [18] was 0 and the “5-aza-dC Up” value [18] was 5. The “5-aza-dC Down” value [19] was 1, the “5-aza-dC Up” value [19] was 3 and the “5-aza-dC Down” value [20] was 6. The “5-aza-dC Up” value [20] was 7, the “5-aza-dC Down” value [21] was 2 and the “5-aza-dC Up” value [21] was 4. For the same compound, the “5-aza-dC Down” value [22] was 2, the “5-aza-dC Up” value [22] was 9 and the “5-aza-dC Down” value [23] was 7. The “5-aza-dC Up” value [23] was 14, the “5-aza-dC Down” value [24] was 0 and the “5-aza-dC Up” value [24] was 1. For the same compound, the “5-aza-dC Down” value [25] was 2, the “5-aza-dC Up” value [25] was 14 and the “5-aza-dC Down” value [26] was 0. The “5-aza-dC Up” value [26] was 1, the “5-aza-dC Down” value [27] was 2 and the “5-aza-dC Up” value [27] was 0. The “5-aza-dC Down” value [28] was 0, the “5-aza-dC Up” value [28] was 1 and the “5-aza-dC Down” value [29] was 2. For the same compound, the “5-aza-dC Up” value [29] was 4, the “5-aza-dC Down” value [30] was 2 and the “5-aza-dC Up” value [30] was 1. The “5-aza-dC Down” value [31] was 0, the “5-aza-dC Up” value [31] was 3 and the “5-aza-dC Down” value [32] was 0. For the same compound, the “5-aza-dC Up” value [32] was 3, the “5-aza-dC Down” value [33] was 2 and the “5-aza-dC Up” value [33] was 10. The “5-aza-dC Down” value [34] was 1, the “5-aza-dC Up” value [34] was 6 and the “5-aza-dC Down” value [35] was 0. For the same compound, the “5-aza-dC Up” value [35] was 2, the “5-aza-dC Down” value [36] was 1 and the “5-aza-dC Up” value [36] was 4. The “5-aza-dC Down” value [37] was 0, the “5-aza-dC Up” value [37] was 3 and the “5-aza-dC Down” value [38] was 0. For the same compound, the “5-aza-dC Up” value [38] was 11, the “5-aza-dC Down” value [39] was 6 and the “5-aza-dC Up” value [39] was 41. For the same compound, the “5-aza-dC Down” value [40] was 1, the “5-aza-dC Up” value [40] was 3 and the “5-aza-dC Down” value [41] was 5. The “5-aza-dC Up” value [41] was 9, the “5-aza-dC Down” value [42] was 9 and the “5-aza-dC Up” value [42] was 27. For the same compound, the “5-aza-dC Down” value [43] was 1, the “5-aza-dC Up” value [43] was 7 and the “5-aza-dC Down” value [44] was 3. The “5-aza-dC Up” value [44] was 8, the “5-aza-dC Down” value [45] was 0 and the “5-aza-dC Up” value [45] was 1. The “5-aza-dC Down” value [46] was 1, the “5-aza-dC Up” value [46] was 2 and the “5-aza-dC Down” value [47] was 1. The “5-aza-dC Up” value [47] was 2, the “5-aza-dC Down” value [48] was 0 and the “5-aza-dC Up” value [48] was 8. For the same compound, the “5-aza-dC Down” value [49] was 1, the “5-aza-dC Up” value [49] was 26 and the “5-aza-dC Down” value [50] was 2. For the same compound, the “5-aza-dC Up” value [50] was 30, the “5-aza-dC Down” value [51] was 1 and the “5-aza-dC Up” value [51] was 17. For the same compound, the “5-aza-dC Down” value [52] was 1, the “5-aza-dC Up” value [52] was 14 and the “5-aza-dC Down” value [53] was 0. The “5-aza-dC Up” value [53] was 7, the “5-aza-dC Down” value [54] was 0 and the “5-aza-dC Up” value [54] was 2. The “5-aza-dC Down” value (Cellular component: Cellular—component unknown, GO 0008372, Total 266) was 2.
